Columns and labels:
[1] = biological target: T1, EGFR L858R (BaF3-L858R cells) (Homo sapiens, UniProt P00533, L858R); assay: EGFR degradation in BaF3-L858R cells (HTRF assay); type: cell-based; settings: 16 h treatment; for DC50: IC50(DC50) of EGFR degradation; for Dmax: maximum percentage of inhibition (degradation)
T1 construct: host or cells: BaF3
Experimental: BaF3-L858R (abbv. L858R) cell were purchased from Kangyuan Bochuang Biotechnology (Beijing) Co., Ltd.
(§1) H1975-#8 and BaF3-L858R cells are treated with compounds diluted in 0.1% DMSO cell culture medium on day 2, incubate for 16 h, 37° C., 5% CO2. the final concentration of compounds in all assay is start with 10 uM, 5-fold dilution, total 8 doses were included.
(§2) After 16 h treatment, for H1975-#8 cells, add 100 ul HTRF 1× lysis buffer to each well; for BaF3-L858R cells, add 20 μl 4× lysis buffer to each well; seal the plate and incubate 1 hour at room temperature on a plate shaker; Once the cells are lysed, 16 μL of cell lysate are transferred to a PE 384-well HTRF detection plate; 4 μL of pre-mixed HTRF antibodies are added to each well; Cover the plate with a plate sealer, spin 1000 rpm for 1 min, Incubate overnight at room temperature; Read on BMG PheraStar with HTRF protocol (337 nm-665 nm-620 nm).
(§3) The inhibition (degradation) percentage of the compound was calculated by the following equation:
(§4) High control=Cell group with added DMSO and without compound, indicating microplate readings without EGFR degradation;
(§5) Dmax is the maximum percentage of inhibition (degradation).
(§6) The IC50(DC50) value of a compound can be obtained by fitting the following equation
(§7) Wherein, X and Y are known values, and IC50, Hillslope, Top and Bottom are the parameters obtained by fitting with software. Y is the inhibition percentage (calculated from the equation), X is the concentration of the compound; IC50 is the concentration of the compound when the 50% inhibition is reached. The smaller the IC50 value is, the stronger the inhibitory ability of the compound is. Vice versa, the higher the IC50 value is, the weaker the ability the inhibitory ability of the compound is; Hillslope represents the slope of the fitted curve, generally around 1*; Bottom represents the minimum value of the curve obtained by data fitting, which is generally 0%±20%; Top represents the maximum value of the curve obtained by data fitting, which is generally 100%±20%. The experimental data were fitted by calculating and analyzing with Dotmatics data analysis software.

[2] = biological target: T2, EGFR-L858R/C797S (H1975-clone #8 cells) (Homo sapiens, UniProt P00533, C797S/L858R); assay: EGFR degradation in H1975-clone#8 (L858R/C797S) cells (HTRF assay); type: cell-based; settings: 16 h treatment; for DC50: IC50(DC50) of EGFR degradation; for Dmax: maximum percentage of inhibition (degradation)
T2 construct: expressed in transfected cells; host or cells: H1975 (lentiviral transduction, endogenous EGFR knocked out, single clone #8)
Experimental: H1975-clone #8 (L858R/C797S): EGFR-L858R/C797S were stably expressed in H1975 cell lines by lentivirus-mediated over-expression, respectively. The EGFR over-expressed cells then underwent knockout, in which the EGFR targeting sgRNA was designed to only target the endogenous EGFR copies and preserve the exogenous EGFR copies. Followed by the knockout, the edited H1975 cells were seeded in 96 well plates at the concentration of […], cultured for about 2 weeks to allow single clones formation. The formed clones were screened by DNA sequencing and whole exon sequencing analysis for the desired edition. H1975-clone #8 were finally confirmed as homozygous L858R/C797S EGFR clones.
as §1, §2, §3, §4, §5, §6, §7

T2 sequence (P00533 25-1210 C797S/L858R): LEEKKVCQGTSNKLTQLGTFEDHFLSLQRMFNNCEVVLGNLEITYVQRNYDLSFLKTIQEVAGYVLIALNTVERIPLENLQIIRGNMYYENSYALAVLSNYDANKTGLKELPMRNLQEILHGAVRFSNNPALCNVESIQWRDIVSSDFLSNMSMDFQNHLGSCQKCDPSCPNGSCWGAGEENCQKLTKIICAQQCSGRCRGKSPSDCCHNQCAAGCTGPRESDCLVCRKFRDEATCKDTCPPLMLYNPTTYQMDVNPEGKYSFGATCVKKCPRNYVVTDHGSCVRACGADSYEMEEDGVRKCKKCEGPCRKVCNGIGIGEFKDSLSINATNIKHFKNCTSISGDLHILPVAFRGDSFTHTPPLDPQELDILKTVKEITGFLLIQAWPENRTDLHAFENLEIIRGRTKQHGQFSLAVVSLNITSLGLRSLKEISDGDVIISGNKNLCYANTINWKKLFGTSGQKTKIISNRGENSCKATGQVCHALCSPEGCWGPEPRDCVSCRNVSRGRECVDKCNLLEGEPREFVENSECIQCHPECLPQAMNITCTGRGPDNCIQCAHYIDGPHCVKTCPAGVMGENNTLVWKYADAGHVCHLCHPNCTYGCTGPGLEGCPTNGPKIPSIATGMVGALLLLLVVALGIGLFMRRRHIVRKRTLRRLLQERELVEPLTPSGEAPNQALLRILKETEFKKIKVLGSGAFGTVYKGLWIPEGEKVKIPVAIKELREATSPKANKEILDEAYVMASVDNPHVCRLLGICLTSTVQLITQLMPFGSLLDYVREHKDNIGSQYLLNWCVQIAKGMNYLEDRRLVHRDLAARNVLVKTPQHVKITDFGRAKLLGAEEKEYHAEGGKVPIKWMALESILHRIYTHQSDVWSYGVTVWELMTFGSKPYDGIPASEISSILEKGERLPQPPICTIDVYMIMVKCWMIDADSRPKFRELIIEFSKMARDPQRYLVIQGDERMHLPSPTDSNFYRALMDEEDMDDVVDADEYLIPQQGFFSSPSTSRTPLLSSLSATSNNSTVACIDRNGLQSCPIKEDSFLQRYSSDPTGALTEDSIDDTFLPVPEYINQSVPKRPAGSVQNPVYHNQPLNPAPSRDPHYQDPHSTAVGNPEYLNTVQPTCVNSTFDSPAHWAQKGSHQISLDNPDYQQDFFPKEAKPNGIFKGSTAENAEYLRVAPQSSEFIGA
T1 sequence (P00533 25-1210 L858R): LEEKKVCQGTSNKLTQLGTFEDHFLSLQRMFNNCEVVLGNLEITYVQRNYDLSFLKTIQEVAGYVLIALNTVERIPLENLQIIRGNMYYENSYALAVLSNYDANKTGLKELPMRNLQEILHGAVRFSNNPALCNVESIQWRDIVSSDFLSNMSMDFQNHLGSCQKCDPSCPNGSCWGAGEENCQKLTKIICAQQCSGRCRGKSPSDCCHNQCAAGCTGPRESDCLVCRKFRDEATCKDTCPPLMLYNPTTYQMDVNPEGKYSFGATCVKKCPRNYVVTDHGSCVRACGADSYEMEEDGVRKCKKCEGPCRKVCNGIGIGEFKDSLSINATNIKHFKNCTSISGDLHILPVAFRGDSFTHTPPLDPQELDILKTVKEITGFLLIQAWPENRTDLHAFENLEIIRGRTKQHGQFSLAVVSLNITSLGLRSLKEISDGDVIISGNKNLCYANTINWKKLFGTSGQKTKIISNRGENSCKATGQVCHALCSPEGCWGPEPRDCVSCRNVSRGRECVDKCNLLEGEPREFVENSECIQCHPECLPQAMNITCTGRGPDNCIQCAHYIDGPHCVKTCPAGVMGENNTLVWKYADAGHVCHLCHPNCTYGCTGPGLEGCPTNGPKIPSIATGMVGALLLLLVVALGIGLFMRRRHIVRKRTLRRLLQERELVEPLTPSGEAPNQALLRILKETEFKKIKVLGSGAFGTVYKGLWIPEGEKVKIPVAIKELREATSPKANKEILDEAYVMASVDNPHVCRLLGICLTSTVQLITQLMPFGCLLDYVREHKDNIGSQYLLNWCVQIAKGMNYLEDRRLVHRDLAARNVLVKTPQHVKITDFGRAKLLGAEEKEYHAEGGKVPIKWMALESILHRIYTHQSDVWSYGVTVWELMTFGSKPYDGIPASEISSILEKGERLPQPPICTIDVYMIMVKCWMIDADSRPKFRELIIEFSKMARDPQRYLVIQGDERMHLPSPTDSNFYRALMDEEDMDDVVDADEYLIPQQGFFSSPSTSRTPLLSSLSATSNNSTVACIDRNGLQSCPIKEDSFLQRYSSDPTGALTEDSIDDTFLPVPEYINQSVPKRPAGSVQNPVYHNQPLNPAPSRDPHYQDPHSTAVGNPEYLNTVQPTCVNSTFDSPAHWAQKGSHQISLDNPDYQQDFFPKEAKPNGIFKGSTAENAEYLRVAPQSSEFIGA

| DC50 [1] [nM] | Dmax [1] [%] | DC50 [2] [nM] | Dmax [2] [%] | Structure (SMILES) |
| --- | --- | --- | --- | --- |
| 6.31 | 78.2 | 2.71 | 49 | Cc1cc2cc(n1)-c1cnn(C)c1OCC[C@H]1C[C@@H]1CN1/C(=N/C2=O)Nc2ccc(N3CC4CCC3CN4C3CN(C4CCN(c5c(C)cc(C6CCC(=O)NC6=O)nc5C)CC4)C3)cc21 (stereo partly shown) [Example 28, 3-(5-(4-(3-(5-((7^1S,7^2R,E)-1^1,2^6-dimethyl-3-oxo-5^2,5^3-dihydro-1^1H,5^1H-10-oxa-4-aza-5 (2,1)-benzo[d]imidazola-2 (2,4)-pyridina-1 (4,5)-pyrazola-7 (1,2)-cyclopropanacyclodecaphane-5^6-yl)-2,5-diazabicyclo[2.2.2]octan-2-yl)azetidin-1-yl)piperidin-1-yl)-4,6-dimethylpyridin-2-yl)piperidine-2,6-dione] |
| 3.9 | 67.8 | 0.986 | 49.2 | Cc1cc2cc(n1)-c1cnn(C)c1OCC[C@]1(C)C[C@H]1CN1/C(=N/C2=O)Nc2ccc(N3CCC(C(=O)N4CCC(Oc5cc(F)c([C@H]6CCC(=O)NC6=O)c(F)c5)CC4)CC3)cc21 [Example 29, (R)-3-(2,6-difluoro-4-((1-(1-((7^1R,7^2S,E)-1^1,2^6,7^2-trimethyl-3-oxo-5^2,5^3-dihydro-1^1H,5^1H-10-oxa-4-aza-5 (2,1)-benzo[d]imidazola-2 (2,4)-pyridina-1 (4,5)-pyrazola-7 (1,2)-cyclopropanacyclodecaphane-5^6-yl)piperidine-4-carbonyl)piperidin-4-yl)oxy)phenyl)piperidine-2,6-dione] |
| 21 | 89.3 | 9.57 | 57.5 | Cc1cc2cc(n1)-c1cnn(C)c1OCC[C@H]1C[C@@H]1CN1/C(=N/C2=O)Nc2ccc(N3CCN([C@H]4CCN(c5cc(F)c(C6CCC(=O)NC6=O)nc5C)C[C@H]4F)CC3)cc21 (stereo partly drawn) [Example 30, 3-(5-((3R,4S)-4-(4-((7^1S,7^2R,E)-1^1,2^6-dimethyl-3-oxo-5^2,5^3-dihydro-1^1H,5^1H-10-oxa-4-aza-5 (2,1)-benzo[d]imidazola-2 (2,4)-pyridina-1 (4,5)-pyrazola-7 (1,2)-cyclopropanacyclodecaphane-5^6-yl)piperazin-1-yl)-3-fluoropiperidin-1-yl)-3-fluoro-6-methylpyridin-2-yl)piperidine-2,6-dione] |
| 4.61 | 89.5 | 9.56 | 69.3 | CCc1nc(C2CCC(=O)NC2=O)ccc1N1CC[C@H](N2CCN(c3ccc4c(c3)N3C[C@H]5C[C@@H]5CCOc5c(cnn5C)-c5cc(cc(C)n5)C(=O)/N=C/3N4)CC2)[C@H](F)C1 (stereo partly drawn) [Example 31, 3-(5-((3R,4S)-4-(4-((7^1S,7^2R,E)-1^1,2^6-dimethyl-3-oxo-5^2,5^3-dihydro-1^1H,5^1H-10-oxa-4-aza-5 (2,1)-benzo[d]imidazola-2 (2,4)-pyridina-1 (4,5)-pyrazola-7 (1,2)-cyclopropanacyclodecaphane-5^6-yl)piperazin-1-yl)-3-fluoropiperidin-1-yl)-6-ethylpyridin-2-yl)piperidine-2,6-dione] |

The remaining lines, values behind:

| Structure (SMILES) | DC50 [1] [nM] | Dmax [1] [%] | DC50 [2] [nM] | Dmax [2] [%] |
| --- | --- | --- | --- | --- |
| Cc1cc2cc(n1)-c1cnn(C)c1OCC[C@H]1C[C@@H]1CN1/C(=N/C2=O)Nc2ccc(N3CCN(CCc4c(C)cc(C5CCC(=O)NC5=O)nc4C)CC3)cc21 (stereo partly shown) [Example 21, 3-(5-(2-(4-((7^1S,7^2R,E)-1^1,2^6-dimethyl-3-oxo-5^2,5^3-dihydro-1^1H,5^1H-10-oxa-4-aza-5 (2,1)-benzo[d]imidazola-2 (2,4)-pyridina-1 (4,5)-pyrazola-7 (1,2)-cyclopropanacyclodecaphane-5^6-yl)piperazin-1-yl)ethyl)-4,6-dimethylpyridin-2-yl)piperidine-2,6-dione] | 1.65 | 82.8 | 19.3 | 40.2 |
| Cc1cc2cc(n1)-c1cnn(C)c1OCC[C@H]1C[C@@H]1CN1/C(=N/C2=O)Nc2ccc(N3CCN(C4CN(C5CCN(c6c(C)cc(C7CCC(=O)NC7=O)nc6C)CC5)C4)C[C@@H]3C)cc21 (stereo partly drawn) [Example 22, 3-(5-(4-(3-((S)-4-((7^1S,7^2R,E)-1^1,2^6-dimethyl-3-oxo-5^2,5^3-dihydro-1^1H,5^1H-10-oxa-4-aza-5 (2,1)-benzo[d]imidazola-2 (2,4)-pyridina-1 (4,5)-pyrazola-7 (1,2)-cyclopropanacyclodecaphane-5^6-yl)-3-methylpiperazin-1-yl)azetidin-1-yl)piperidin-1-yl)-4,6-dimethylpyridin-2-yl)piperidine-2,6-dione] | 3.97 | 83.2 | 2.83 | 67.9 |
| Cc1cc2cc(n1)-c1cnn(C)c1OCC[C@H]1C[C@@H]1CN1/C(=N/C2=O)Nc2ccc(N3CCN(C4CN(C5CCN(c6c(C)cc(C7CCC(=O)NC7=O)nc6C)CC5)C4)C[C@H]3C)cc21 (stereo partly drawn) [Example 24, 3-(5-(4-(3-((R)-4-((7^1S,7^2R,E)-1^1,2^6-dimethyl-3-oxo-5^2,5^3-dihydro-1^1H,5^1H-10-oxa-4-aza-5 (2,1)-benzo[d]imidazola-2 (2,4)-pyridina-1 (4,5)-pyrazola-7 (1,2)-cyclopropanacyclodecaphane-5^6-yl)-3-methylpiperazin-1-yl)azetidin-1-yl)piperidin-1-yl)-4,6-dimethylpyridin-2-yl)piperidine-2,6-dione] | 3.66 | 80 | 2.08 | 49.8 |
| CCc1nc(C2CCC(=O)NC2=O)ccc1N1CCC(N2CCN(c3ccc4c(c3)N3C[C@@H]5C[C@@]5(C)CCOc5c(cnn5C)-c5cc(cc(C)n5)C(=O)/N=C/3N4)CC2)CC1 (stereo partly shown) [Example 25, 3-(6-ethyl-5-(4-(4-((7^1R,7^2S,E)-1^1,2^6,7^2-trimethyl-3-oxo-5^2,5^3-dihydro-1^1H,5^1H-10-oxa-4-aza-5 (2,1)-benzo[d]imidazola-2 (2,4)-pyridina-1 (4,5)-pyrazola-7 (1,2)-cyclopropanacyclodecaphane-5^6-yl)piperazin-1-yl)piperidin-1-yl)pyridin-2-yl)piperidine-2,6-dione] | 2.42 | 91.5 | 1.65 | 57 |
| COC[C@@H]1CN(c2ccc3c(c2)N2C[C@@H]4C[C@@]4(C)CCOc4c(cnn4C)-c4cc(cc(C)n4)C(=O)/N=C/2N3)CCN1C1CCN(c2cc(F)c([C@H]3CCC(=O)NC3=O)c(F)c2)CC1 [Example 26, (R)-3-(2,6-difluoro-4-(4-((S)-2-(methoxymethyl)-4-((7^1R,7^2S,E)-1^1,2^6,7^2-trimethyl-3-oxo-5^2,5^3-dihydro-1^1H,5^1H-10-oxa-4-aza-5 (2,1)-benzo[d]imidazola-2 (2,4)-pyridina-1 (4,5)-pyrazola-7 (1,2)-cyclopropanacyclodecaphane-5^6-yl)piperazin-1-yl)piperidin-1-yl)phenyl)piperidine-2,6-dione] | 4.02 | 85.7 | 3.41 | 58.9 |
| Cc1cc2cc(n1)-c1cnn(C)c1OCC[C@]1(C)C[C@H]1CN1/C(=N/C2=O)Nc2ccc(N3CCN(C4CN(C5CCN(c6cc(F)c([C@H]7CCC(=O)NC7=O)c(F)c6)CC5)C4)C[C@@H]3C)cc21 [Example 27, (R)-3-(2,6-difluoro-4-(4-(3-((S)-3-methyl-4-((7^1R,7^2S,E)-1^1,2^6,7^2-trimethyl-3-oxo-5^2,5^3-dihydro-1^1H,5^1H-10-oxa-4-aza-5 (2,1)-benzo[d]imidazola-2 (2,4)-pyridina-1 (4,5)-pyrazola-7 (1,2)-cyclopropanacyclodecaphane-5^6-yl)piperazin-1-yl)azetidin-1-yl)piperidin-1-yl)phenyl)piperidine-2,6-dione] | 1.25 | 79.1 | 1.31 | 63.6 |

Reference: patent US20260077051A1, “COMPOUNDS FOR THE DEGRADATION OF EGFR KINASE” (BeOne Medicines I GmbH, priority 2023, published 2026)
